Source: patent US5998366A, “Method for ameliorating glutamic acid decarboxylase associated autoimmune disorders” (The Regents of the University of California, priority 1997, dated 1999)

Key:
female NOD mice [1] = experiment: Insulitis score after tolerance induction; format: in vivo; settings: Table 8A: i.v. injection at 3 weeks of age in PBS, examined at 12 weeks; scale 0-4; mean ± SE
Method: 1. In these experiments female NOD mice were intravenously injected at 3 weeks of age with 50 μg GAD, μ-galactosidase, mycobacterial hsp65 (m-hsp) or 0.1 μg of the immunodominant hsp peptide (hsp-p), in PBS. At 12 weeks of age, mice were examined for insulitis and autoantigen reactive T-cells. At this age both indications are established in untreated NOD mice. Pancreatic tissue sections were stained by immunoperoxidase techniques for insulin and were counterstained with hematoxylin. Insulitis was scored in a blinded manner by examining 54 to 87 islets on 5 interrupted tissue sections from each pancreas. Proliferative splenic T-cell responses induced by various antigens were performed as described above in Example 4. Data in Table 8 are expressed as the average [^3 H]-thymidine label (cpm) incorporated in triplicate cultures.
2. In a second set of experiments neonatal female NOD mice were injected intraperitoneally IFA with peptide 11, a mixture of peptides 34 and 35 plus IFA, or with IFA alone and at 12 weeks of age the mice were examined for insulitis and autoantigen reactive T-cells as in Example 6.1. Proliferative splenic T-cell responses induced by the various antigens were performed as in Example 4, and data in Table 8B are expressed as the average [^3 H]-thymidine label (cpm) incorporated in triplicate cultures.
3. In a third set of experiments female NOD mice were intravenously injected at three weeks of age with peptide 11 (control), a mixture of peptides 34 and 35 plus IFA, or with HEL peptides and at 12 weeks of age the mice were examined for insulitis and autoantigen reactive T-cells as in Example 6.1. Proliferative splenic T-cell responses induced by the various antigens were performed as in Example 4, and data in Table 8C are expressed as the average [^3 H]-thymidine label (cpm) incorporated in triplicate cultures.

female NOD mice [2] = experiment: GAD immunization of 8 week old NOD mice, onset of IDDM; format: in vivo; settings: again every 6 weeks
Description: An IPTG inducible T7 expression vector was used to express both human GAD65 and E. coli b galactosidase (β-gal). In IPTG induced recombinant E. coli, GAD and β-gal constitute about 10-20% of the total bacterial protein. However, almost all of the GAD was in inclusion bodies, which could be isolated and extensively washed to obtain material that is about 80% GAD. We then did affinity purifications of GAD and β-gal on the basis of a hexa-histidine "tag" which was attached to GAD during the subcloning process. These extra histidine residues allow the rapid affinity purification (Novagen) of GAD by metal affinity chromatography (Hochuli, et al., Bio Technology, 6:1321-1325, 1988). The inclusion body material is solubilized in 6M guanidine hydrochloride (GHCL), 10 mm β-mercaptoethanol and 1% triton X-100. After binding to the column, the column was extensively washed with GHCL and 8M urea in phosphate buffers. Only the central peak GAD fraction was utilized for subsequent studies. Human GAD65 shares 96% amino acid sequence identity with murine GAD65, with most of the amino acid differences being conservative substitutions.
Breeder mice were purchased from Taconic Farms and housed under specific pathogen-free conditions. Only female NOD mice were used in this study. The average age of IDDM onset in unrelated females in the colony was 22 weeks. Insulitis is generally observed beginning at 4 weeks of age. T cell responses to GAD, HSP, CPH were found by 6 weeks in age. The incidence of IDDM in female mice is 70-90% by one year of age.
At 8 weeks of age, 25 ug GAD or control β-gal. was injected intraperftoneally (ip) in 100 ul of incomplete Freunds adjuvant (IFA). Because there may be a requirement for continual antigen presentation (Ramsdell, et al., Science, 257:1130-1133, 1992) mice were treated again every 6 weeks. Urine glucose levels were monitored twice weekly. After observing above normal glucose in urea, blood glucose levels were monitored twice weekly. Two consecutive blood glucose level readings of […] was considered as IDDM onset, after which the mice were sacrificed and spleen cells were tested as described above in Example 6 for evidence of spleen cell proliferation.

[3] = test system: spleen cells of treated female NOD mice; experiment: Proliferative splenic T-cell responses to antigens after tolerance induction; format: in vivo; settings: Table 8A: i.v. at 3 weeks, tested at 12 weeks
[4] = test system: IDDM autoantibodies in sera of human patients; experiment: Immunoprecipitation of 35S-labeled GAD65 segments by IDDM patient sera; format: binding; settings: 22 IDDM patient sera, 30 μl serum
Description: Portions of human GAD65 cDNA were amplified by the polymerase chain reaction (PCR; Saiki, et al., Science, 239:487, 1988) to produce DNA segments encoding three polypeptide segments: amino acid residues 1-224 (segment A); 224-398 (segment B); and 398-585 (segment C). Each construct also contained a T7 promoter, a consensus sequence for the initiation of translation and an initiating methionine codon (Korak, M., J. Cell Biol., 108:229, 1989). Each PCR product was then trascribed in vitro with T7 RNA polymerase and translated in vitro in a rabbit reticulocyte cell-free system in the presence of ^35 S-methionine, using conditions recommended by the supplier (Amersham Corp., Arlington Heights, Ill.). Each test serum (30 μl) was incubated with the resulting ^35 S labeled-polypeptides. The bound peptides were isolated with PAS and analyzed by SDS-PAGE in 12% polyaacrylamide and autoradiography.

[5] = target: T1, 64 kD pancreatic polypeptide (Homo sapiens, UniProt Q05329); experiment: Prior absorption of patient sera, then immunoprecipitation of the 64 kD islet cell polypeptide; format: binding
T1 construct: antibodies which recognize specific polypeptides produced in human pancreatic islet cells; endogenous in cells; host or cells: human pancreatic islet cells from cadaveric pancreas, metabolically labelled with 35S-methionine
T1 sequence (Q05329 whole entry): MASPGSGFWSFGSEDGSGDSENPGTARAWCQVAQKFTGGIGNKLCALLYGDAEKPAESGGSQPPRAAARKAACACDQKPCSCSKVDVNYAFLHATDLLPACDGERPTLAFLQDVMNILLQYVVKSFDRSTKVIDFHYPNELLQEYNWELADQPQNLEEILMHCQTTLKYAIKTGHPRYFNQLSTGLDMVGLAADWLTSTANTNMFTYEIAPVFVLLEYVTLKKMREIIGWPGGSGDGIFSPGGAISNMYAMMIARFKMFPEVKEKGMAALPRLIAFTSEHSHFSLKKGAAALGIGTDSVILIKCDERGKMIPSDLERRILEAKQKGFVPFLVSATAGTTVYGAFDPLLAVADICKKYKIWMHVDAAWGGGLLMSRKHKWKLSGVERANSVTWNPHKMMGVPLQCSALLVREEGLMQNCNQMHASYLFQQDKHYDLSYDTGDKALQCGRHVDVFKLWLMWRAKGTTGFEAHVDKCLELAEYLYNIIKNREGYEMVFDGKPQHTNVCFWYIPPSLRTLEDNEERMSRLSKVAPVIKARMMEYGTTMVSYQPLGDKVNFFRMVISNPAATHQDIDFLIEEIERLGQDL
Description: 4. Human Islet Cells. Human pancreatic islets were isolated from cadaveric pancreases and maintained in vitro as previously described (Ricordi, et al., Diabetes, 37:413-420, 1988). The islet cells were metabolically labeled with ^35 S methionine (Amersham, Arlington Heights, Ill.) in vitro (95% air/5%CO2).
(§1) 5. Islet Cell Extractions and Immunoprecipitations. Islet cells were extracted as previously described by Atkinson, et al. (Lancet, 335:1357-1360, 1990) with the following modifications. […] Following another incubation with protein A Sepharose CL-4B (1 h, 4° C.), the complexes were then washed 5 times with 50 mM Tris HCL (pH 7.4) with 0.1% SDS, 1.0% Triton X-114, and 2 mM EDTA, and then washed again one time in double distilled water. The protein A Sepharose CL-4B was then boiled in Laemmli sample buffer (Laemmli, Nature, 227:680-685, 1970), and the samples were subjected to SDS-PAGE and fluororadiography (Kodak, X-omat AR5) using Enhance (New England Nuclear). Alternatively, the autoradiographs were analyzed by a BETAGEN (Boston, Mass.) analyzer. Both 64 KA positive and negative sera were used in each assay, to serve as interassay controls. All fluororadiographs were analyzed and rated as positive or negative after comparison with the known interassay controls.

autoantibodies to GAD65 = experiment: Immunoprecipitation of 35S-GAD65 by sera drawn before IDDM onset; format: binding, human; settings: sera drawn 3 to 66 months before IDDM onset
Method: as §1
A similar rating procedure was employed for the intensity of bands corresponding to immunoprecipitated ^35 S-GAD65 and ^35 S-GAD67.
6. Immunoprecipitations. […]
8. […] After sonication, cell debris was removed by centrifugation and protein concentration was measured (Bradford, Anal.Biochem., 72:248, […]) in the supernatant (supernatant was stored in aliquots at -70° C.).

For “β-Gal.: E. coli β-galactosidase (control antigen) purified from recombinant bacteria by hexahistidine tag [reference compound]”, the “Insulitis Score” value (female NOD mice [1]) was 2.6 ± 0.6, the “mice that developed IDDM by 27 weeks in age” value (female NOD mice [2]; 25 ug ip in IFA at 8 weeks of age) was 6/10 and the “treated mice remaining disease free at 52 weeks of age” value (female NOD mice [2]; 25 ug ip in IFA at 8 weeks, 10 mice per group) was 2. The “Spleen Cell Proliferation (SI ± SEM) CPH” value ([3]; recall antigen CPH) was 11.5 ± 0.9 SI, the “Spleen Cell Proliferation (SI ± SEM) GAD” value ([3]; recall antigen GAD) was 15.4 ± 1.8 SI and the “Spleen Cell Proliferation (SI ± SEM) GAD Peptides #17” value ([3]; recall antigen GAD peptide #17) was 5.1 ± 0.6 SI. For the same molecule, the “Spleen Cell Proliferation (SI ± SEM) GAD Peptides #34” value ([3]; recall antigen GAD peptide #34) was 5.1 ± 0.6 SI, the “Spleen Cell Proliferation (SI ± SEM) GAD Peptides #35” value ([3]; recall antigen GAD peptide #35) was 4.0 ± 0.2 SI and the “Spleen Cell Proliferation (SI ± SEM) hsp Peptide” value ([3]; recall antigen hsp peptide) was 6.6 ± 0.5 SI. The “Spleen Cell Proliferation (SI ± SEM) β-Gal” value ([3]; recall antigen β-Gal) was 1.1 ± 0.1 SI.

In the case of “segment B: human GAD65 amino acid residues 224-398, translated in vitro, 35S labeled”, the “patients with antibodies reactive with the segment” value (shortened to “patients with antibodies reactive”) [4] is reported as 41%.

“bacterially produced GAD65: GAD65 expressed in bacteria, used to absorb patient sera” was tested, and the “ability of the absorbed sera to recognize the 64 kD pancreatic polypeptide” value [5] was “abolished”.

B1: ^35 S-GAD65: 35S-labeled rat GAD65 produced in a bacterial expression system (protein, UniProt Q05683 1-585, looked up)
Glutamate decarboxylase 2: MASPGSGFWSFGSEDGSGDPENPGTARAWCQVAQKFTGGIGNKLCALLYGDSEKPAESGGSVTSRAATRKVACTCDQKPCSCPKGDVNYALLHATDLLPACEGERPTLAFLQDVMNILLQYVVKSFDRSTKVIDFHYPNELLQEYNWELADQPQNLEEILTHCQTTLKYAIKTGHPRYFNQLSTGLDMVGLAADWLTSTANTNMFTYEIAPVFVLLEYVTLKKMREIIGWPGGSGDGIFSPGGAISNMYAMLIARYKMFPEVKEKGMAAVPRLIAFTSEHSHFSLKKGAAALGIGTDSVILIKCDERGKMIPSDLERRILEVKQKGFVPFLVSATAGTTVYGAFDPLLAVADICKKYKIWMHVDAAWGGGLLMSRKHKWKLNGVERANSVTWNPHKMMGVPLQCSALLVREEGLMQSCNQMHASYLFQQDKHYDLSYDTGDKALQCGRHVDVFKLWLMWRAKGTTGFEAHIDKCLELAEYLYNIIKNREGYEMVFDGKPQHTNVCFWFVPPSLRVLEDNEERMSRLSKVAPVIKARMMEYGTTMVSYQPLGDKVNFFRMVISNPAATHQDIDFLIEEIERLGQDL
modifications: 35S label
notes: 35S-labeled rat GAD65 produced in a bacterial expression system
B1 was tested, and the “specimens immunoreactive with the labeled protein” value (autoantibodies to GAD65) was 9 out of 12.

B2: segment C: human GAD65 amino acid residues 398-585, translated in vitro, 35S labeled (protein, UniProt Q05329 398-585, looked up, fragment)
chain: MGVPLQCSALLVREEGLMQNCNQMHASYLFQQDKHYDLSYDTGDKALQCGRHVDVFKLWLMWRAKGTTGFEAHVDKCLELAEYLYNIIKNREGYEMVFDGKPQHTNVCFWYIPPSLRTLEDNEERMSRLSKVAPVIKARMMEYGTTMVSYQPLGDKVNFFRMVISNPAATHQDIDFLIEEIERLGQDL
modifications: 35S label
notes: human GAD65 amino acid residues 398-585, translated in vitro, 35S labeled
With B2 the “patients with antibodies reactive” value [4] was 27%.

B3: segment A: human GAD65 amino acid residues 1-224, translated in vitro, 35S labeled (protein, UniProt Q05329 1-224, looked up, fragment)
chain: MASPGSGFWSFGSEDGSGDSENPGTARAWCQVAQKFTGGIGNKLCALLYGDAEKPAESGGSQPPRAAARKAACACDQKPCSCSKVDVNYAFLHATDLLPACDGERPTLAFLQDVMNILLQYVVKSFDRSTKVIDFHYPNELLQEYNWELADQPQNLEEILMHCQTTLKYAIKTGHPRYFNQLSTGLDMVGLAADWLTSTANTNMFTYEIAPVFVLLEYVTLKKM
modifications: 35S label
notes: human GAD65 amino acid residues 1-224, translated in vitro, 35S labeled
For B3, the “patients with antibodies reactive” value [4] was “none”.
